Source: patent US3968233A, “α-Amino-γ-butyrolactones as sedatives” (priority 1975, dated 1976)

How the values were obtained:
[1] = Avoidance reflex in conditioned mice; assay type: in vivo, mouse; details: control 53.3 ± 4.5 sec
Text: A conditioning cage was constructed of two chambers with free access between chambers. The floor of one compartment was electrified to make it possible to deliver a mild shock. Mice were conditioned by first giving a warning signal and then after a short period of time the shock was applied. Eventually the mice learned to leave the electrified compartment after the warning bell sounded and they were then judged to be conditioned. The average period of time, in this experiment, for control animals (4) to leave the compartment was 53.3 ± 4.5 sec. Four conditioned mice were administered AP-28 intraperitoneally with 250 mg/kg and their time was 60.6 ± 3.9 sec. Four more conditioned mice treated with 500 mg/kg of AP-28 required 77.5 ± 2.7 sec. to clear the compartment.

[2] = Enhancement of the hypnotic effect of sodium pentobarbital; assay type: in vivo, mouse
Method: Forty mg/kg of sodium pentobarbital was injected intraperitoneally into mice and note was taken of animals losing the righting reflex and for how long. Other mice received a preliminary treatment with AP-28 at a dosage of 250 and 500 mg/kg, intraperitoneally, and thereafter sodium pentobarbital was given to them.

[3] = Influence on amphetamine-induced hypermobility; assay type: in vivo, mouse; details: d-amphetamine sulfate 5 mg/kg i.p. + AP-28 250 mg/kg i.p. 15 minutes later
Method: Six groups of 4 mice each were treated with 5 mg/kg d-amphetamine sulfate by intraperitoneal administration. Six groups of 4 animals each received the same dose of d-amphetamine sulfate plus 250 mg/kg of AP-28 intraperitoneally 15 minutes after d-amphetamine sulfate; six more groups of four animals each received saline solution and served as control animals. […] The number of times each animal crossed the light beam throughout the 10-minute test was noted.

[4] = Excretion rate of intravenously-injected bromosulfonphthalein in bile; assay type: in vivo; details: single 500 mg/kg oral dose
Method: The effect of a single 500 mg/kg oral dose of AP-28 was determined on (a) diuresis in water-loaded rats, (b) choleresis, (c) the excretion rate of intravenously-injected bromosulfonphthalein in bile, (d) arterial blood pressure.

[5] = AP-28 250 + sodium pentobarbital 40 mg/kg i.p.
[6] = AP-28 500 + sodium pentobarbital 40 mg/kg i.p.

## CCCCOC(=O)NC1CCOC1=O (stereo not drawn) [AP-28, α-n-butoxycarbonyl-amino-γ-butyrolactone]
[1]; 250 mg/kg i.p.
  time to leave the electrified compartment: 60.6 ± 3.9 s
[1]; 500 mg/kg i.p.
  time to leave the electrified compartment: 77.5 ± 2.7 s
[2]; [5]
  Animals under hypnosis/treated: 4/4
  Duration of hypnosis in minutes (m ± SE): 52.5 ± 13 min
[2]; [6]
  Animals under hypnosis/treated: 4/4
  Duration of hypnosis in minutes (m ± SE): 75.2 ± 21.6 min
[3]
  Mean number of crossings (± SE) in 10 minutes: 836 ± 100
[4]
  excretion rate of bromosulfonphthalein in bile: No treatment caused any significant change
